pKi: −log10 of the molar value.

This passage reports Ki results from US10479784B2, “Substituted pyrazin-2-amines as inhibitors of ATR kinase” (Vertex Pharmaceuticals Incorporated, priority 2008, dated 2019).

The target of the experiment is full-length ATR (Homo sapiens (Human), UniProt Q13535). Kind of experiment: ATR Inhibition Assay (radioactive-phosphate incorporation). Particulars: read-out: ATR Ki. The experiment is classed as biochemical. An outline of the steps: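 Full-length human ATR (5 nM) was assayed at 25 °C in 50 mM Tris/HCl pH 7.5, 10 mM MgCl2, 1 mM DTT, with 10 μM [γ-33P]ATP and 800 μM peptide, after 10-min compound preincubation. Reactions were stopped after 24 h, captured on phosphocellulose and counted; Ki(app) came from non-linear regression of initial rates.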
Chain of full-length ATR (Q13535 whole entry): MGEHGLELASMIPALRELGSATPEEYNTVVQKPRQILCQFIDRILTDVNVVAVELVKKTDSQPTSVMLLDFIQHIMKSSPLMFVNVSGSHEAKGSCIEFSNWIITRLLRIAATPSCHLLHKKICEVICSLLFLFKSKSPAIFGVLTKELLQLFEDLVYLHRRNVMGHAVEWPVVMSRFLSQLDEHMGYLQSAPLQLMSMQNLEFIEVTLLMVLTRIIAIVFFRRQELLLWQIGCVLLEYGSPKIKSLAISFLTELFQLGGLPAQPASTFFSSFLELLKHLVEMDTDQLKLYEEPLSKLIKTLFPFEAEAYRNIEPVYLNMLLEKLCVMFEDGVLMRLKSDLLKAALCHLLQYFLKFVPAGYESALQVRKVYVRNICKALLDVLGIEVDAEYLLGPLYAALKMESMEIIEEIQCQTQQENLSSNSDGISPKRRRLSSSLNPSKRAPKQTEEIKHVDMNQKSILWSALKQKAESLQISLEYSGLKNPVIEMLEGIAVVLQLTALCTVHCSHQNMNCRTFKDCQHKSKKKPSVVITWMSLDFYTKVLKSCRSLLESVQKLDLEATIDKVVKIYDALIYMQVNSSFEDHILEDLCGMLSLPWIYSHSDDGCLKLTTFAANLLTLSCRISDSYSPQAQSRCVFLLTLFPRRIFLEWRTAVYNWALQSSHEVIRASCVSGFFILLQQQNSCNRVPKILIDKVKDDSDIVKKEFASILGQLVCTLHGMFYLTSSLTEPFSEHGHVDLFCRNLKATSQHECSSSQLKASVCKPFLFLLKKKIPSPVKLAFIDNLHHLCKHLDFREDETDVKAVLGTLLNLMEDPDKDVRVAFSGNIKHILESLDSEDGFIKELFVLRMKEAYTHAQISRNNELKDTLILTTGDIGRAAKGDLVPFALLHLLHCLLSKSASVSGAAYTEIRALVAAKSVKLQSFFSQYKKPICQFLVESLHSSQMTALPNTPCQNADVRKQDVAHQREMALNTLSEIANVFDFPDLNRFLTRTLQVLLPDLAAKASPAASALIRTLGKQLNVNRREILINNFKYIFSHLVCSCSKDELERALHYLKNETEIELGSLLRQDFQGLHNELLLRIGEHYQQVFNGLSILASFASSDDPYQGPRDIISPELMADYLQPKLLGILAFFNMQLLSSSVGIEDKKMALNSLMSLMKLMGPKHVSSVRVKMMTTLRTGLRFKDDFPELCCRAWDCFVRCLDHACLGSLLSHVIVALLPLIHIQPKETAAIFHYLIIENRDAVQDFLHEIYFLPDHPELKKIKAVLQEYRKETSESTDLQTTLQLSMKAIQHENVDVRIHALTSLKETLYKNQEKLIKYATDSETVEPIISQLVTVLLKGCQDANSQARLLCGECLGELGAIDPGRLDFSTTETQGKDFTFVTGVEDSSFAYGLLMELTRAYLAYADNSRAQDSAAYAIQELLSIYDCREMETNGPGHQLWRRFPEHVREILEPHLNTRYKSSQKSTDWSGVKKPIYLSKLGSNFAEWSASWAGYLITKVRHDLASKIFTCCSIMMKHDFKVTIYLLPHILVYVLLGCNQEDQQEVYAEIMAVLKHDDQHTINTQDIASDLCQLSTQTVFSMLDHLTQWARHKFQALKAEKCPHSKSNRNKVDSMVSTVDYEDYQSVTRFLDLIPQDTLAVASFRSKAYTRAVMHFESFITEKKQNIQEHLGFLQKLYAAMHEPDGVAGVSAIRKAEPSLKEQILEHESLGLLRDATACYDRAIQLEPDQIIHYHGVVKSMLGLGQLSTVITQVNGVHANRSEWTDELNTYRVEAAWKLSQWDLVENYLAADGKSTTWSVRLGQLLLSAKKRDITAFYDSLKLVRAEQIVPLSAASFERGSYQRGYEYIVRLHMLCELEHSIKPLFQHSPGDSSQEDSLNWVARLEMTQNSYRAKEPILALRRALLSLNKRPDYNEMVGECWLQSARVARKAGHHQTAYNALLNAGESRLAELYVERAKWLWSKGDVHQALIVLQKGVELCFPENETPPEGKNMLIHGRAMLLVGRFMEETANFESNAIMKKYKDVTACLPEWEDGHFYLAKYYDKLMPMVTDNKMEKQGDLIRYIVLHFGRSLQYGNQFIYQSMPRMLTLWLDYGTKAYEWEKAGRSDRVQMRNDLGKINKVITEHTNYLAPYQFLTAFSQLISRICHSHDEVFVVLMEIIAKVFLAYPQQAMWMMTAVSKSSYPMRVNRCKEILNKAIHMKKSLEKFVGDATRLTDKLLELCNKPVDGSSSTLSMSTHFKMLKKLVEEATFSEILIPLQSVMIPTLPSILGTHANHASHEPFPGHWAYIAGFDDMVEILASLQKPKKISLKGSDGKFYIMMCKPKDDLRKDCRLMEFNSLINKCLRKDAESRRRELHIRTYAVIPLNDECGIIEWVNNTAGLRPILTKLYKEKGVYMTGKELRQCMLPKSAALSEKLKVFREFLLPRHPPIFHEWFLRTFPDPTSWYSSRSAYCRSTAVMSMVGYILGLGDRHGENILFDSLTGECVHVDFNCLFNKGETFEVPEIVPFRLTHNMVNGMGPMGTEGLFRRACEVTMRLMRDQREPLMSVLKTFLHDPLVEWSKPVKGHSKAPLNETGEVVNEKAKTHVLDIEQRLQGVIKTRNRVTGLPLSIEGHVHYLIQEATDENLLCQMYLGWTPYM

Regarding `CC(=O)Nc1ccc(NC(=O)c2nc(-c3cccnc3)cnc2N)cc1` [Compound I-93, 3-amino-N-(4-ethanamidophenyl)-6-(pyridin-3-yl)pyrazine-2-carboxamide], the pKi is 5.30 to 7.00.

Regarding `CNCc1ccc(-c2nnc(-c3nc(-c4ccc(S(=O)(=O)C(C)CCO)cc4)cnc3N)o2)cc1` (centres unmarked) [IA-88, 3-[4-[5-amino-6-[5-[4-(methylaminomethyl)phenyl]-1,3,4-oxadiazol-2-yl]pyrazin-2-yl]phenyl]sulfonylbutan-1-ol], the pKi is at least 8.00.

With `Nc1ncc(-c2cccnc2)nc1C(=O)Nc1ccc2[nH]ccc2c1` [Compound V-17], the pKi was 7.00 to 8.00.

With `CC(C)S(=O)(=O)c1ccc(-c2cnc(N)c(-c3nnc(-c4cc(C#N)cs4)o3)n2)cc1` [IA-143, 5-[5-[3-amino-6-(4-isopropylsulfonylphenyl)pyrazin-2-yl]-1,3,4-oxadiazol-2-yl]thiophene-3-carbonitrile], the pKi is 7.00 to 8.00.

As to `Nc1ncc(-c2ccc(C(=O)NCCN3CCCC3)cc2)nc1-c1nc2ccccc2[nH]1` [III-6, 4-(5-amino-6-(1H-benzo[d]imidazol-2-yl)pyrazin-2-yl)-N-(2-(pyrrolidin-1-yl)ethyl)benzamide], the pKi is 7.00 to 8.00.

For the compound `CC(C)S(=O)(=O)c1ccc(-c2cnc(N)c(-c3nnc(-c4ccc(CNCC(C)(C)O)cc4F)o3)n2)cc1` [IA-348, 1-(4-(5-(3-amino-6-(4-(isopropylsulfonyl)phenyl)pyrazin-2-yl)-1,3,4-oxadiazol-2-yl)-3-fluorobenzylamino)-2-methylpropan-2-ol], the pKi was at least 8.00.

`CC(C)S(=O)(=O)c1ccc(-c2cnc(N)c(-c3nnc(-c4ccc(CNC5COC5)cc4F)o3)n2)cc1` [IA-319, 3-[5-[2-fluoro-4-[(oxetan-3-ylamino)methyl]phenyl]-1,3,4-oxadiazol-2-yl]-5-(4-isopropylsulfonylphenyl)pyrazin-2-amine]: the negative logarithm of the Ki (pKi) was at least 8.00.

Regarding `Nc1ncc(-c2ccc(C(=O)NC3CC3)cc2)nc1C(=O)Nc1ccccc1` [Compound I-51, 3-amino-6-(4-(cyclopropylcarbamoyl)phenyl)-N-phenylpyrazine-2-carboxamide], the pKi is 7.00 to 8.00.

Take `Nc1ncc(-c2ccccc2)nc1-c1nnc(-c2ccccc2)o1` [IA-49]: the pKi is 7.00 to 8.00.

For `Nc1ncc(-c2ccc(S(=O)(=O)C3CCOCC3)cc2)nc1-c1nnc(-c2ccccc2F)o1` [IA-327, 3-[5-(2-fluorophenyl)-1,3,4-oxadiazol-2-yl]-5-(4-tetrahydropyran-4-ylsulfonylphenyl)pyrazin-2-amine], the pKi was at least 8.00.

As to `Nc1ncc(-c2cccc(F)c2)nc1C(=O)Nc1ccccc1` [Compound I-9, 3-amino-6-(3-fluorophenyl)-N-phenylpyrazine-2-carboxamide], the pKi was 5.30 to 7.00.

Consider `CC(C)S(=O)(=O)c1ccc(-c2cnc(N)c(-c3nnc(NC(=O)[C@@H]4CCCCN4)o3)n2)cc1` [IA-211, (2S)—N-[5-[3-amino-6-(4-isopropylsulfonylphenyl)pyrazin-2-yl]-1,3,4-oxadiazol-2-yl]piperidine-2-carboxamide], for which the pKi was 5.30 to 7.00.

In the case of `CC(C)S(=O)(=O)c1ccc(-c2cnc(N)c(-c3nnc(N4CCC(CN)CC4)o3)n2)cc1` [IA-138, 3-[5-[4-(aminomethyl)-1-piperidyl]-1,3,4-oxadiazol-2-yl]-5-(4-isopropylsulfonylphenyl)pyrazin-2-amine], the pKi was 7.00 to 8.00.

`Nc1ncc(-c2cccnc2)nc1-c1nnc(-c2cccs2)[nH]1` [IIIA-4, 5-(pyridin-3-yl)-3-(5-(thiophen-2-yl)-4H-1,2,4-triazol-3-yl)pyrazin-2-amine]: the pKi was 7.00 to 8.00.

As for `Nc1ncc(-c2ccc(C(=O)N3CCC(CO)CC3)cc2)nc1C(=O)Nc1ccccc1` [Compound I-79, 3-amino-6-(4-(4-(hydroxymethyl)piperidine-1-carbonyl)phenyl)-N-phenylpyrazine-2-carboxamide], the pKi was 7.00 to 8.00.

In the case of `Nc1ncc(-c2cccnc2)nc1C(=O)Nc1ccncn1` [Compound I-89, 3-amino-6-(pyridin-3-yl)-N-(pyrimidin-4-yl)pyrazine-2-carboxamide], the pKi is 5.30 to 7.00.

As to `COC1CN(C(=O)c2cccc(-c3cnc(N)c(C(=O)Nc4ccccc4)n3)c2)C1` [Compound I-60, 3-amino-6-(3-(3-methoxyazetidine-1-carbonyl)phenyl)-N-phenylpyrazine-2-carboxamide], the negative-log Ki (pKi) is 5.30 to 7.00.

As for `CS(=O)(=O)c1ccc(-c2cnc(N)c(-c3nc4ccncc4[nH]3)n2)cc1` [Compound I-120, 3-(3H-imidazo[4,5-c]pyridin-2-yl)-5-(4-(methylsulfonyl)phenyl) pyrazin-2-amine], the pKi was 7.00 to 8.00.

Turning to `CN(C)C1CCN(C(=O)c2ccc(-c3cnc(N)c(-c4nnc(-c5ccccc5)o4)n3)c(C(F)(F)F)c2)CC1` [IA-22], the pKi is 7.00 to 8.00.

With `CNCc1ccc(-c2nnc(-c3nc(-c4ccc(S(=O)(=O)C(C)C)c(C)c4)cnc3N)o2)cc1` [IA-312, 5-(4-isopropylsulfonyl-3-methyl-phenyl)-3-[5-[4-(methylaminomethyl)phenyl]-1,3,4-oxadiazol-2-yl]pyrazin-2-amine], the pKi was at least 8.00.

As for `CC(C)S(=O)(=O)c1ccc(-c2cnc(N)c(-c3nnc(-c4ccc(CNC[C@H](C)O)cc4F)o3)n2)cc1` [IA-334, (S)-1-(4-(5-(3-amino-6-(4-(isopropylsulfonyl)phenyl)pyrazin-2-yl)-1,3,4-oxadiazol-2-yl)-3-fluorobenzylamino)propan-2-ol], the pKi was at least 8.00.

Regarding `Nc1ncc(-c2ccc(C(=O)N3CCCNCC3)cc2)nc1-c1nnc(-c2ccccc2)s1` [IA-68, (4-(5-amino-6-(5-phenyl-1,3,4-thiadiazol-2-yl)pyrazin-2-yl)phenyl)(1,4-diazepan-1-yl)methanone], the pKi is at least 8.00.

Consider `CC1CN(C(=O)c2ccc(-c3cnc(N)c(-c4nnc(-c5ccccc5)o4)n3)cc2)CCN1` (centres unmarked) [IA-17], for which the pKi is 7.00 to 8.00.

For `Nc1ncc(-c2cccnc2)nc1-c1nnc(-c2cccs2)[nH]1` [Compound I-142, 5-(pyridin-3-yl)-3-(5-(thiophen-2-yl)-4H-1,2,4-triazol-3-yl)pyrazin-2-amine], the pKi is 7.00 to 8.00.

For `CNC(C)c1ccc(-c2nnc(-c3nc(-c4ccc(S(=O)(=O)C(C)C)cc4)cnc3N)o2)cc1` (centres unmarked) [IA-212, 5-(4-isopropylsulfonylphenyl)-3-[5-[4-[1-(methylamino)ethyl]phenyl]-1,3,4-oxadiazol-2-yl]pyrazin-2-amine], the negative logarithm of the Ki (pKi) is at least 8.00.

In the case of `Nc1ncc(-c2cccnc2)nc1C(=O)Nc1ccccn1` [Compound I-97, 3-amino-N-(pyridin-2-yl)-6-(pyridin-3-yl)pyrazine-2-carboxamide], the negative logarithm of the Ki (pKi) was 5.30 to 7.00.

As to `C[S+]([O-])c1ccccc1-c1cnc(N)c(-c2nnc(-c3ccccc3)o2)n1` (centres unmarked) [IA-241, 5-(2-methylsulfinylphenyl)-3-(5-phenyl-1,3,4-oxadiazol-2-yl)pyrazin-2-amine], the negative-log Ki (pKi) is at least 8.00.

Regarding `CN(C)C(=O)c1ccc(-c2cnc(N)c(-c3nnc(NCCc4ccccc4)o3)n2)cc1` [IA-156, 4-[5-amino-6-[5-(phenethylamino)-1,3,4-oxadiazol-2-yl]pyrazin-2-yl]-N,N-dimethyl-benzamide], the pKi was 5.30 to 7.00.

For the compound `Cc1ccc(-c2nnc(-c3nc(-c4ccc(C(=O)N(C)C)cc4)cnc3N)o2)s1` [IA-245, 4-[5-amino-6-[5-(5-methyl-2-thienyl)-1,3,4-oxadiazol-2-yl]pyrazin-2-yl]-N,N-dimethyl-benzamide], the pKi is 7.00 to 8.00.
